# Patent publication US20220347075A1, “PEPTIDE BASED COSMETIC OR DERMATOLOGICAL TREATMENT OF THE SKIN AND ITS APPENDAGES” (Sederma, priority 2019, published 2022)
# Residues, ends and D or L forms follow the SMILES beside them. *: point of attachment. Palmitoyl = CCCCCCCCCCCCCCCC(=O)*
# What was measured:
# Format in all cases: cell-based
# [1] = tested on: normal human keratinocytes (NHK); assay: Immunocytofluorescence labeling of involucrin, loricrin, filaggrin on NHK culture; conditions: 5 ppm, 7 days, immunofluorescence
# Experimental: Study by Immunocytofluorescence Labeling on KHN Culture
# Principle: confluent NHKs (n=3) are cultured as above for 7 days in the presence or absence (control) of the peptide according to the invention then the cell layers are fixed and labels by immunocytochemistry are carried out using antibodies directed against proteins characteristic of the maturation of the epidermis: involucrine, loricrin and filaggrin. Photos are captured using a fluorescence microscope and images analyzed using appropriate software. The results are compared with those of the control. The number of cells on the mats is evaluated by the Hoechst method (DNA staining), to reduce the fluorescence value to the number of cells. A variance study and a Student's t test are carried to judge the significance of the results.
# 1.1.1. Induction of the formation of involucrin, loricrin and filaggrin in NEM (by immunofluorescence)/effect of 5 ppm of the peptide according to the invention: […]
# [2] = tested on: normal human keratinocytes (NHK); assay: DNA microarray (DNA-Array) gene expression on NHK culture; conditions: 7 ppm
# Experimental: Study Using DNA Microarray Technology (DNA-Array) on NHK Culture
# Principle: the peptide according to the invention (7 ppm) is brought into contact for 24 or 48 hours with confluent NHKs (vs. control case). Then the NHK mats are rinsed, and the cells are crushed to extract their mRNA. These mRNAs are then converted into DNA sequences which are analyzed after depositing on DNA chips and amplification by a method like QRT-PCR. The mRNA variations due to the peptide are compared to the control case (peptide solvent). The results are expressed as an expression ratio between the treated case and the control case. A ratio greater than 1.5 is as an induction of gene expression (+50% compared to the control).
# [3] = tested on: normal human keratinocytes (NHK); assay: LC-MS/MS protein study on NHK culture; conditions: 5 ppm; 7 days; p < 0.01
# Text: Liquid Chromatography/Mass Spectrometry (LC-MS/MS) Study on NHK Culture
# Principle: the same culture protocol as for the DNA-Array is used but with a longer culture time (7 days) because the protein productions take longer to be able to be detected with this method in LC-MS/MS. The peptide concentration applied to the cells is 5 ppm (vs. control case). The culture medium of the NHK (n=3) is changed every 3 days. At the end of this contact, the cells are lysed for extracting the proteins and to analyze them in the form of ground material by a method combining the action of a protease on the ground material, the separation of the fragments by liquid chromatography coupled with mass spectrometry, and then the identification and concentration of pre-existing proteins according to the nature and quantity of the fragments obtained (LC-MS/MS). To carry out LC-MS/MS analysis on equivalent amounts of proteins, the protein concentration is measured on the ground material. The results are expressed as an expression ratio between the treated case and the control case. A ratio greater than 1.5 is considered as an increase in protein production (+50% compared to the control). A study of variances and a Student's t test is carried out for judging the significance of the results.
# [4] = tested on: normal human keratinocytes (NHK); assay: Molecular biology study (qRT-PCR) on NHK culture; conditions: 5 ppm, 24 hours, RT-PCR
# Experimental: Molecular Biology Study on NHK Culture
# Principle: in this test, confluent keratinocytes are brought into contact with the peptide according to the invention for 24 hours. The cells are then frozen to dryness and their RNAs are extracted, converted into DNA, then analyzed by qRT-PCR (“Quantitative real time reverse transcription polymerase chain reaction”). The results are expressed as an expression ratio between the treated case and the control case. A ratio greater than 1.5 is as an induction of gene expression (+50% compared to the control). A study of variances and a Student's t test are carried out for judging the significance of the results (n=4 for each condition).
# Propionibacterium acnes = Propionibacterium acnes growth inhibition test (OD 600 nm); conditions: for Time necessary to reach an OD of 1 (P. acnes growth): control 28 hours, anaerobic, 37° C.
# Experimental: Propionibacterium acnes Growth Inhibition Test Principle: suspensions of Propionibacterium acnes of equivalent density are cultured in a suitable medium in the presence (test case) or absence (control case) of the peptide according to the invention, in anaerobic condition, at 37° C. Samples are taken at regular intervals to measure the OD at 600 nm for following the growth of the bacterial population over time. The growth curve of each culture is thus established. Growth of the bacterium Propionibacterium acnes: time necessary to reach an OD of 1 in the control case and in the presence of the peptide according to the invention (N=2 independent experiments; n=2 cultures per case): […]
# [5] = tested on: normal human keratinocytes (NHK) exposed to UVB; assay: Immunoenzymatic assay (ELISA) of pro-inflammatory mediators of NHK exposed to UVB
# Experimental: Study by Immune Enzymatic Assay on NHK Culture
# Principle: NHKs in culture and at confluence are brought into contact with the peptide according to the invention (or its solvent) for 24 hours in a medium allowing their survival. Then the cell layers are irradiated with UVB in a physiological buffer and again brought into contact with the products to be tested for 24 hours. At the end of this incubation, the culture media are assayed by ELISA to know the amounts of pro-inflammatory mediators produced by these cells in response to irradiation. The results are compared to the control. A cell respiration test is conducted on the fixed mat to assess the number of cells and standardize the results. A study of variances and a Student's t test are carried out for judging the significance of the results.
# To test the active ingredients, keratinocytes were placed in culture under light stress conditions (application of UVB radiation) to mimic an experimental skin micro-inflammation. In this situation, a significant decrease in their secretome of inflammation mediators will be interpreted in the sense of a restorative and protective action of the skin.
# Variation compared to the control of the secretome of pro-inflammatory mediators by NHKs exposed to UVB (by immunoenzymatic assay)/effect of the peptide according to the invention at 4, 6 and 8 ppm: […]
structure (smiles),measurement,setting,value
"CCCCCCCCCCCCCCCC(=O)N[C@@H](CCCCN)C(=O)N[C@H](C(=O)N[C@H](C(=O)N[C@@H](CCCCN)C(=O)N[C@@H](CO)C(=O)O)[C@@H](C)O)[C@@H](C)O [Pal-KTTKS, palmitoyl-lysyl-threonyl-threonyl-lysyl-serine] (Palmitoyl-KTTKS-OH)",Filaggrin: % of variation/control,[1]; p < 0.01,+310%; p < 0.01
same,Loricrin: % of variation/control,[1]; p < 0.01,+128%; p < 0.01
same,Involucrin: % of variation/control,[1]; p < 0.05,+1057%; p < 0.05
same,"ABHD5 gene expression, variation vs control",[2]; 24 h contact,×2.10
same,"ADGRG1 gene expression, variation vs control",[2]; 24 h contact,×1.92
same,"ALOX12B gene expression, variation vs control",[2]; 24 h contact,×2.48
same,"ALOXE3 gene expression, variation vs control",[2]; 24 h contact,×2.92
same,"ASPRV1 gene expression, variation vs control",[2]; 24 h contact,×3.35
same,"BMP2 gene expression, variation vs control",[2]; 24 h contact,×3.63
same,"BMP6 gene expression, variation vs control",[2]; 24 h contact,×13
same,"ELOVL4 gene expression, variation vs control",[2]; 24 h contact,×5.41
same,"FN1 gene expression, variation vs control",[2]; 24 h contact,×3.38
same,"GSK3B (glycogen synthase kinase 3 beta) gene expression, variation vs control",[2]; 24 h contact,×1.64
same,"GSKA (glycogene synthase kinase 3 alpha) gene expression, variation vs control",[2]; 24 h contact,×1.57
same,"IL37 gene expression, variation vs control",[2]; 24 h contact,×3.60
same,"LCE2C gene expression, variation vs control",[2]; 24 h contact,×26.30
same,"LCE3A gene expression, variation vs control",[2]; 24 h contact,×65.26
same,"LCE3B gene expression, variation vs control",[2]; 24 h contact,×123.00
same,"LCE3D gene expression, variation vs control",[2]; 24 h contact,×110.46
same,"LCE3E gene expression, variation vs control",[2]; 24 h contact,×135.99
same,"LOR gene expression, variation vs control",[2]; 24 h contact,×1.86
same,"PPARD gene expression, variation vs control",[2]; 24 h contact,×1.97
same,"PRSS8 gene expression, variation vs control",[2]; 24 h contact,×3.72
same,"SPRR2A gene expression, variation vs control",[2]; 24 h contact,×8.71
same,"SPRR2B gene expression, variation vs control",[2]; 24 h contact,×58.44
same,"SPRR2C gene expression, variation vs control",[2]; 24 h contact,×6.30
same,"SPRR2D gene expression, variation vs control",[2]; 24 h contact,×7.87
same,"SPRR2E gene expression, variation vs control",[2]; 24 h contact,×6.47
same,"SPRR2F gene expression, variation vs control",[2]; 24 h contact,×6.00
same,"SPRR2G gene expression, variation vs control",[2]; 24 h contact,×13.43
same,"SPRR3 gene expression, variation vs control",[2]; 24 h contact,×1.90
same,"SPRR4 gene expression, variation vs control",[2]; 24 h contact,×2.95
same,"TGM1 gene expression, variation vs control",[2]; 24 h contact,×1.70
same,"CDSN gene expression, variation vs control",[2]; 24 hours of contact,×3.36
same,"CGNL1 gene expression, variation vs control",[2]; 24 hours of contact,×3.37
same,"CLDN4 gene expression, variation vs control",[2]; 24 hours of contact,×5.16
same,"CLDN7 gene expression, variation vs control",[2]; 24 hours of contact,×4.47
same,"CLDN12 gene expression, variation vs control",[2]; 24 hours of contact,×2.68
same,"CLDN15 gene expression, variation vs control",[2]; 24 hours of contact,×4.80
same,"CLDN17 gene expression, variation vs control",[2]; 24 hours of contact,×113.20
same,"CLDN23 gene expression, variation vs control",[2]; 24 hours of contact,×3.69
same,"KLK14 gene expression, variation vs control",[2]; 24 hours of contact,×1.79
same,"OCLN gene expression, variation vs control",[2]; 24 hours of contact,×5.91
same,"TJP1 gene expression, variation vs control",[2]; 24 hours of contact,×2.15
same,"CERS1 gene expression, variation vs control",[2]; 48 h contact,×3.48
same,"CRNN gene expression, variation vs control",[2]; 48 h contact,×4.73
same,"TCHH gene expression, variation vs control",[2]; 48 h contact,×4.87
same,"SOD2 gene expression, variation vs control",[2]; 48 hours contact,×2.93
same,"ADGRG1 protein, variation vs control",[3],×1.63;
same,"ASPRV1 protein, variation vs control",[3],×2.35; p < 0.01
same,"CALM5 protein, variation vs control",[3],×1.61; p < 0.01
same,"CRYAB (alpha-crystallin B) protein, variation vs control",[3],×2.24; p < 0.01
same,"FLG (filaggrin) protein, variation vs control",[3],×2.66; p < 0.01
same,"KRT1 protein, variation vs control",[3],×1.58; p < 0.01
same,"KRT6B protein, variation vs control",[3],×2.07; p < 0.01
same,"KRT9 protein, variation vs control",[3],×1.54; p < 0.01
same,"KRT10 protein, variation vs control",[3],×1.75; p < 0.01
same,"KRT15 protein, variation vs control",[3],×2.02; p < 0.01
same,"LOR (loricrin) protein, variation vs control",[3],×2.92; p < 0.01
same,"SPINK5 protein, variation vs control",[3],×1.58; p < 0.01
same,"TCHH (trichohyalin) protein, variation vs control",[3],×1.54; p < 0.01
same,"THBS1 protein, variation vs control",[3],×1.98;
same,"CRYAB (alpha-crystallin B) gene expression, variation vs control",[4]; p < 0.01,×3.47; p < 0.01
same,"Involucrine gene expression, variation vs control",[4]; p < 0.01,×1.64; p < 0.01
same,"Transglutaminase 1 gene expression, variation vs control",[4]; p < 0.05,×1.82; p < 0.05
same,Time necessary to reach an OD of 1 (P. acnes growth),Propionibacterium acnes; 6 ppm of peptide,42 h
same,Growth of Propionibacterium acnes (result in words),Propionibacterium acnes; 6 to 12 ppm,strongly and dose-dependently inhibits the growth
same,Time necessary to reach an OD of 1 (P. acnes growth),Propionibacterium acnes; 9 ppm of peptide,54 h
same,Time necessary to reach an OD of 1 (P. acnes growth),Propionibacterium acnes; 12 ppm of peptide,85.5 h
same,"IL6 secretion, variation vs control","[5]; 4 ppm, ns",−13%
same,"PGE2 secretion, variation vs control","[5]; 4 ppm, p < 0.01",−41%
same,"IL6 secretion, variation vs control","[5]; 6 ppm, p < 0.01",−68% (p < 0.01)
same,"PGE2 secretion, variation vs control","[5]; 6 ppm, p < 0.01",−69% (p < 0.01)
same,"IL6 secretion, variation vs control","[5]; 8 ppm, p < 0.01",−84% (p < 0.01)
same,"PGE2 secretion, variation vs control","[5]; 8 ppm, p < 0.01",−84% (p < 0.01)
